Laboratory results taken from the NIST ThermoML archive (doi:10.1016/j.tca.2016.08.008).
± gives the expanded uncertainty stated by the source.

Assay: molar heat capacity at constant pressure
Settings: 101.33 kPa, Metastable crystal

O=P([O-])([O-])[O-].[Tb+3] [terbium orthophosphate]
Settings | molar heat capacity at constant pressure [J/K/mol]
291.41 K, Vacuum adiabatic calorimetry | 108 ± 1.3
294.82 K, Vacuum adiabatic calorimetry | 108.6 ± 1.3
298.47 K, Vacuum adiabatic calorimetry | 109.3 ± 1.3
300 K, Vacuum adiabatic calorimetry | 109.8 ± 1.1
302.47 K, Vacuum adiabatic calorimetry | 110 ± 1.3
307.42 K, Vacuum adiabatic calorimetry | 110.9 ± 1.3
310 K, Vacuum adiabatic calorimetry | 111.5 ± 1.1
313.46 K, Vacuum adiabatic calorimetry | 112.2 ± 1.4
320 K, Vacuum adiabatic calorimetry | 113.1 ± 1.2
320.4 K, Vacuum adiabatic calorimetry | 113.3 ± 1.4
325 K, Vacuum adiabatic calorimetry | 113.9 ± 1.2
327.27 K, Vacuum adiabatic calorimetry | 114.3 ± 1.4
334.07 K, Vacuum adiabatic calorimetry | 115.4 ± 1.4
340 K, Small sample (50 mg) DSC | 116.3 ± 3.9
340.79 K, Vacuum adiabatic calorimetry | 116.6 ± 1.4
347.44 K, Vacuum adiabatic calorimetry | 117.5 ± 1.4
360 K, Small sample (50 mg) DSC | 119 ± 3.9
380 K, Small sample (50 mg) DSC | 121.5 ± 4
400 K, Small sample (50 mg) DSC | 123.7 ± 4.1
420 K, Small sample (50 mg) DSC | 125.6 ± 4.2
433.9 K, Small sample (50 mg) DSC | 128.2 ± 3.1
438.9 K, Small sample (50 mg) DSC | 128.4 ± 3.1
440 K, Small sample (50 mg) DSC | 127.4 ± 4.2
443.9 K, Small sample (50 mg) DSC | 128.3 ± 3.1
448.9 K, Small sample (50 mg) DSC | 128.3 ± 3.1
453.9 K, Small sample (50 mg) DSC | 128.3 ± 3.1
458.9 K, Small sample (50 mg) DSC | 128.5 ± 3.1
460 K, Small sample (50 mg) DSC | 129 ± 4.3
463.9 K, Small sample (50 mg) DSC | 128.6 ± 3.2
468.9 K, Small sample (50 mg) DSC | 129 ± 3.2
473.9 K, Small sample (50 mg) DSC | 129.1 ± 3.2
478.9 K, Small sample (50 mg) DSC | 129.3 ± 3.2
480 K, Small sample (50 mg) DSC | 130.4 ± 4.3
483.9 K, Small sample (50 mg) DSC | 129.7 ± 3.2
488.9 K, Small sample (50 mg) DSC | 130.2 ± 3.2
493.9 K, Small sample (50 mg) DSC | 130.7 ± 3.2
498.9 K, Small sample (50 mg) DSC | 131.4 ± 3.2
500 K, Small sample (50 mg) DSC | 131.7 ± 4.4
503.9 K, Small sample (50 mg) DSC | 131.7 ± 3.2
508.9 K, Small sample (50 mg) DSC | 132.1 ± 3.2
513.9 K, Small sample (50 mg) DSC | 132.7 ± 3.3
518.9 K, Small sample (50 mg) DSC | 132.9 ± 3.3
520 K, Small sample (50 mg) DSC | 132.9 ± 4.4
523.9 K, Small sample (50 mg) DSC | 133.1 ± 3.3
528.9 K, Small sample (50 mg) DSC | 133.7 ± 3.3
533.9 K, Small sample (50 mg) DSC | 134.6 ± 3.3
538.9 K, Small sample (50 mg) DSC | 135.3 ± 3.3
540 K, Small sample (50 mg) DSC | 134 ± 4.4
543.9 K, Small sample (50 mg) DSC | 135.7 ± 3.3
548.9 K, Small sample (50 mg) DSC | 136.1 ± 3.3
553.9 K, Small sample (50 mg) DSC | 136.5 ± 3.3
558.9 K, Small sample (50 mg) DSC | 136.9 ± 3.4
560 K, Small sample (50 mg) DSC | 135 ± 4.5
563.9 K, Small sample (50 mg) DSC | 137.2 ± 3.4
568.9 K, Small sample (50 mg) DSC | 137.5 ± 3.4
573.9 K, Small sample (50 mg) DSC | 138 ± 3.4
578.9 K, Small sample (50 mg) DSC | 138.3 ± 3.4
580 K, Small sample (50 mg) DSC | 135.8 ± 4.5
583.9 K, Small sample (50 mg) DSC | 138.2 ± 3.4
588.9 K, Small sample (50 mg) DSC | 138.1 ± 3.4
593.9 K, Small sample (50 mg) DSC | 138.4 ± 3.4
598.9 K, Small sample (50 mg) DSC | 138.7 ± 3.4
600 K, Small sample (50 mg) DSC | 136.7 ± 4.5
603.9 K, Small sample (50 mg) DSC | 138.6 ± 3.4
608.9 K, Small sample (50 mg) DSC | 138.7 ± 3.4
613.9 K, Small sample (50 mg) DSC | 138.4 ± 3.4
618.9 K, Small sample (50 mg) DSC | 138.5 ± 3.4
620 K, Small sample (50 mg) DSC | 137.4 ± 4.6
623.9 K, Small sample (50 mg) DSC | 138.6 ± 3.4
628.9 K, Small sample (50 mg) DSC | 138.4 ± 3.4
633.9 K, Small sample (50 mg) DSC | 136.7 ± 3.3
638.9 K, Small sample (50 mg) DSC | 135.8 ± 3.3
640 K, Small sample (50 mg) DSC | 138.1 ± 4.6
643.9 K, Small sample (50 mg) DSC | 135.7 ± 3.3
648.9 K, Small sample (50 mg) DSC | 135.9 ± 3.3
653.9 K, Small sample (50 mg) DSC | 136.3 ± 3.3
658.9 K, Small sample (50 mg) DSC | 136.4 ± 3.3
660 K, Small sample (50 mg) DSC | 138.7 ± 4.6
663.9 K, Small sample (50 mg) DSC | 136.8 ± 3.4
668.9 K, Small sample (50 mg) DSC | 136.7 ± 3.3
673.9 K, Small sample (50 mg) DSC | 136.7 ± 3.3
678.9 K, Small sample (50 mg) DSC | 136.8 ± 3.4
680 K, Small sample (50 mg) DSC | 139.3 ± 4.6
683.9 K, Small sample (50 mg) DSC | 136.8 ± 3.4
688.9 K, Small sample (50 mg) DSC | 136.9 ± 3.4
693.9 K, Small sample (50 mg) DSC | 137.1 ± 3.4
698.9 K, Small sample (50 mg) DSC | 137.5 ± 3.4
700 K, Small sample (50 mg) DSC | 139.9 ± 4.6
703.9 K, Small sample (50 mg) DSC | 138 ± 3.4
708.9 K, Small sample (50 mg) DSC | 138.4 ± 3.4
713.9 K, Small sample (50 mg) DSC | 138.9 ± 3.4
718.9 K, Small sample (50 mg) DSC | 139.3 ± 3.4
720 K, Small sample (50 mg) DSC | 140.4 ± 4.7
723.9 K, Small sample (50 mg) DSC | 139.1 ± 3.4
728.9 K, Small sample (50 mg) DSC | 139.3 ± 3.4
733.9 K, Small sample (50 mg) DSC | 139.2 ± 3.4
738.9 K, Small sample (50 mg) DSC | 139.5 ± 3.4
740 K, Small sample (50 mg) DSC | 140.8 ± 4.7
743.9 K, Small sample (50 mg) DSC | 139.8 ± 3.4
748.9 K, Small sample (50 mg) DSC | 140.3 ± 3.4
753.9 K, Small sample (50 mg) DSC | 140.6 ± 3.4
758.9 K, Small sample (50 mg) DSC | 141.1 ± 3.5
760 K, Small sample (50 mg) DSC | 141.2 ± 4.7
763.9 K, Small sample (50 mg) DSC | 141.3 ± 3.5
768.9 K, Small sample (50 mg) DSC | 141.7 ± 3.5
773.9 K, Small sample (50 mg) DSC | 141.7 ± 3.5
778.9 K, Small sample (50 mg) DSC | 141.7 ± 3.5
780 K, Small sample (50 mg) DSC | 141.6 ± 4.7
783.9 K, Small sample (50 mg) DSC | 141.5 ± 3.5
788.9 K, Small sample (50 mg) DSC | 141.5 ± 3.5
793.9 K, Small sample (50 mg) DSC | 141.8 ± 3.5
798.9 K, Small sample (50 mg) DSC | 142.4 ± 3.5
800 K, Small sample (50 mg) DSC | 142 ± 4.7
803.9 K, Small sample (50 mg) DSC | 142.5 ± 3.5
808.9 K, Small sample (50 mg) DSC | 142.6 ± 3.5
813.9 K, Small sample (50 mg) DSC | 142.7 ± 3.5
818.9 K, Small sample (50 mg) DSC | 143.1 ± 3.5
820 K, Small sample (50 mg) DSC | 142.4 ± 4.7
823.9 K, Small sample (50 mg) DSC | 143 ± 3.5
828.9 K, Small sample (50 mg) DSC | 142.9 ± 3.5
833.9 K, Small sample (50 mg) DSC | 143.1 ± 3.5
838.9 K, Small sample (50 mg) DSC | 142.9 ± 3.5
840 K, Small sample (50 mg) DSC | 142.7 ± 4.7
843.9 K, Small sample (50 mg) DSC | 143.2 ± 3.5
848.9 K, Small sample (50 mg) DSC | 142.9 ± 3.5
853.9 K, Small sample (50 mg) DSC | 142.8 ± 3.5
858.9 K, Small sample (50 mg) DSC | 142.7 ± 3.5
860 K, Small sample (50 mg) DSC | 143 ± 4.7
863.9 K, Small sample (50 mg) DSC | 142.4 ± 3.5
868.9 K, Small sample (50 mg) DSC | 142 ± 3.5
873.9 K, Small sample (50 mg) DSC | 141.5 ± 3.5
878.9 K, Small sample (50 mg) DSC | 141.9 ± 3.5
880 K, Small sample (50 mg) DSC | 143.3 ± 4.8
883.9 K, Small sample (50 mg) DSC | 141.8 ± 3.5
888.9 K, Small sample (50 mg) DSC | 141.7 ± 3.5
893.9 K, Small sample (50 mg) DSC | 141.6 ± 3.5
898.9 K, Small sample (50 mg) DSC | 141.8 ± 3.5
900 K, Small sample (50 mg) DSC | 143.6 ± 4.8
903.9 K, Small sample (50 mg) DSC | 141.5 ± 3.5
908.9 K, Small sample (50 mg) DSC | 141.4 ± 3.5
913.9 K, Small sample (50 mg) DSC | 141.7 ± 3.5
918.9 K, Small sample (50 mg) DSC | 141.8 ± 3.5
920 K, Small sample (50 mg) DSC | 143.8 ± 4.8
923.9 K, Small sample (50 mg) DSC | 142.1 ± 3.5
928.9 K, Small sample (50 mg) DSC | 142.7 ± 3.5
933.9 K, Small sample (50 mg) DSC | 143 ± 3.5
938.9 K, Small sample (50 mg) DSC | 142.9 ± 3.5
940 K, Small sample (50 mg) DSC | 144 ± 4.8
943.9 K, Small sample (50 mg) DSC | 142.4 ± 3.5
948.9 K, Small sample (50 mg) DSC | 142.6 ± 3.5
953.9 K, Small sample (50 mg) DSC | 142.6 ± 3.5
958.9 K, Small sample (50 mg) DSC | 143.1 ± 3.5
960 K, Small sample (50 mg) DSC | 144.3 ± 4.8
963.9 K, Small sample (50 mg) DSC | 142.7 ± 3.5
968.9 K, Small sample (50 mg) DSC | 142.8 ± 3.5
973.9 K, Small sample (50 mg) DSC | 142.8 ± 3.5
978.9 K, Small sample (50 mg) DSC | 142.6 ± 3.5
980 K, Small sample (50 mg) DSC | 144.5 ± 4.8
983.9 K, Small sample (50 mg) DSC | 142.5 ± 3.5
988.9 K, Small sample (50 mg) DSC | 142.5 ± 3.5
993.9 K, Small sample (50 mg) DSC | 142.6 ± 3.5
998.9 K, Small sample (50 mg) DSC | 142.9 ± 3.5
1000 K, Small sample (50 mg) DSC | 144.7 ± 4.8
1003.9 K, Small sample (50 mg) DSC | 143 ± 3.5
1008.9 K, Small sample (50 mg) DSC | 143.3 ± 3.5
1009 K, Small sample (50 mg) DSC | 144.8 ± 4.8
